These results are taken from patent US20150297639A1, “TREATING CANCER” (Rhode Island Hospital, A Lifespan-Partner, priority 2012, published 2015).

The structures appear in SMILES notation.

The test system of experiment [1] is DU145 cell line. The note with it: DU145 cell line treated with 9NC; cited from earlier work.
The test system of experiment [2] is DU145 cells. The experiment can be described thus: PARP cleavage Western blot, DU145 cells treated with CPT. The experiment is classed as cell-based, human. Conditions: 100 nM CPT 24 hours, vs untreated control cells. On the procedure:
FIGS. 1A-D are a series of photomicrographs and bar graphs showing ECV-mediated reversal of apoptosis resistance and sensitivity. A, B. ECVs were isolated from DU145 S and DU145 R prostate cells. The ECVs were resuspended in PBS. DU145 S cells were co-cultured with DU145 R ECVs and DU145 R cells were co-cultured with DU145 S ECVs. Non-ECV and ECV co-cultured cells were treated with 100 nM of the anticancer agent camptothecin (CPT) for 24 hours and examined for PARP cleavage and actin via Western blot analysis to measure apoptosis. C, D. The same experiment from A and B was repeated and the samples were examined for apoptosis via propidium iodide staining using a flow cytometer. […]
Total cell extracts were prepared as previously described, and protein concentrations of lysates were determined using a Bradford assay kit (BioRad). […] Proteins recognized by antibodies were detected by enhanced chemilluminescence reagents (GE Healthcare).
To investigate the effects of ECV-mediated transfer of chemoresistance in prostate cancer, the mechanism of resistance to camptothecin (CPT) was studied in human prostate cancer cell lines. […] After six days, both groups were treated with CPT, cells were harvested and analyzed for apoptosis via Poly ADP Ribose Polymerase (PARP) cleavage. […] The same experiment was repeated, and the cells were analyzed for apoptosis via flow cytometry.
For orientation: Immunoblotting shows a protein as a band on a membrane.

The test system of experiment [3] is MDR breast cancer cells. The experiment can be described thus: PARP cleavage Western blot, MDR cells treated with Dox. The note with it: Dox 24 hours. The experiment is classed as cell-based, human. How it is done: (§1) FIG. 8 is a photomicrograph showing MCF7 and MDR breast cancer cells treated with the indicated doses of doxorubicin (Dox) for 24 hours. Western blot analysis was performed to measure the cleavage of PARP (an indicator of apoptosis induction).
FIG. 9 is a photomicrograph of a Western blot analysis for PARP cleavage and actin in protein lysates isolated from MDR (resistant) cells that were co-cultured with MCF7 (sensitive) ECVs for three days then treated with the indicated concentrations of Dox.
(§2) The transfer of chemosensitivity of MCF7 (sensitive) and MCF/MDR (resistant) (MDR) breast cancer cells that are sensitive or resistant, respectively to doxorubicin (Dox) was explored. These cells, similar to the prostate cancer cells, were grown in medium with serum that was depleted of ECVs.
A reciprocal experiment was performed and ECVs from MCF-7 (sensitive) cells were isolated and co-cultured with MDR (resistant) cells for three days. The MDR (resistant) cells were treated with two doses of Dox.

Experiment [4] concerns MCF-7 cells. The experiment can be described thus: Apoptosis by flow cytometry, MCF-7 cells treated with Dox. The experiment is classed as cell-based, human. The note with it: 10 nM Dox 24 hours. How it is done:
FIG. 10 is a bar graph showing the amount of apoptosis in MCF-7 cells that were treated with 10 nM Dox for 24 hours in the presence or absence of MDR ECVs. Cells were harvested and apoptosis measured by flow cytometry. A paired t-test was performed * comparing Dox-treated MCF7 cells and MCF7 cells co-cultured with MDR ECVs. * A paired t-test (p<0.0005) was performed comparing the reduction in soft agar colony formation between Dox treated and MCF7+MDR ECVs+Dox.
The reciprocal experiment from FIG. 9 was performed, and ECVs were isolated from MDR (resistant) cells and co-cultured with MCF7 (sensitive) cells for three days and treated with 10 nM Dox. The cells were analyzed for apoptosis induction by flow cytometry.
On the technique in general: Flow cytometry measures light scatter and fluorescence of single cells or particles in a stream.

Experiment [5] deals with MCF7 breast cancer cells. In words: PARP cleavage Western blot, MCF7 cells treated with Dox. The experiment is classed as cell-based, human. Conditions: Dox 24 hours. How it is done:
as §1, §2

In the case of `CC[C@@]1(O)C(=O)OCc2c1cc1n(c2=O)Cc2cc3c([N+](=O)[O-])cccc3nc2-1` [9NC, 9-nitrocamptothecin], in experiment [1], the apoptosis result is reported as “extensive apoptosis”. On to `CC[C@@]1(O)C(=O)OCc2c1cc1n(c2=O)Cc2cc3ccccc3nc2-1` [CPT, camptothecin], for which, in experiment [2], the PARP cleavage entry is given as “increase in PARP cleavage”. `COc1cccc2c1C(=O)c1c(O)c3c(c(O)c1C2=O)C[C@@](O)(C(=O)CO)C[C@@H]3O[C@H]1C[C@H](N)[C@H](O)[C@H](C)O1` [Dox, doxorubicin]: the “apoptosis measured by cleavage of PARP” value is on record as “remained resistant” in experiment [3] and “sensitive to dose-dependent induction of apoptosis” in experiment [5]. Also, in experiment [4], the apoptosis result is “underwent significant apoptosis”.
